Among the data in ChEMBL document CHEMBL1136714 (J Med Chem, 2003) are IC50 values, retold here.

The structures appear in SMILES notation.

The target in test [1] is Sodium-dependent serotonin transporter (Rattus norvegicus, UniProt P31652). Nature of the test: Binding affinity towards serotonin transporter in rat striatum using [3H]citalopram as radioligand. The class given is tissue-based.
In test [2] the target is T1, Sodium-dependent dopamine transporter (Rattus norvegicus, UniProt P23977). In words: Binding affinity towards dopamine transporter in rat striatum using [3H]WIN-35 428 as radioligand. Type of test: tissue-based.
Test [3] deals with Norepinephrine transporter (Rattus norvegicus, UniProt Q9WTR4). Nature of the test: Binding affinity towards norepinephrine transporter in rat striatum using [3H]nisoxetine as radioligand. Type of test: tissue-based.
For test [4], the target named is T1, Sodium-dependent dopamine transporter. In words: Inhibition of uptake from dopamine transporter in rat striatum using [3H]DA as radioligand. Type of test: functional, tissue-based.

Norepinephrine transporter, sequence (Q9WTR4 whole entry): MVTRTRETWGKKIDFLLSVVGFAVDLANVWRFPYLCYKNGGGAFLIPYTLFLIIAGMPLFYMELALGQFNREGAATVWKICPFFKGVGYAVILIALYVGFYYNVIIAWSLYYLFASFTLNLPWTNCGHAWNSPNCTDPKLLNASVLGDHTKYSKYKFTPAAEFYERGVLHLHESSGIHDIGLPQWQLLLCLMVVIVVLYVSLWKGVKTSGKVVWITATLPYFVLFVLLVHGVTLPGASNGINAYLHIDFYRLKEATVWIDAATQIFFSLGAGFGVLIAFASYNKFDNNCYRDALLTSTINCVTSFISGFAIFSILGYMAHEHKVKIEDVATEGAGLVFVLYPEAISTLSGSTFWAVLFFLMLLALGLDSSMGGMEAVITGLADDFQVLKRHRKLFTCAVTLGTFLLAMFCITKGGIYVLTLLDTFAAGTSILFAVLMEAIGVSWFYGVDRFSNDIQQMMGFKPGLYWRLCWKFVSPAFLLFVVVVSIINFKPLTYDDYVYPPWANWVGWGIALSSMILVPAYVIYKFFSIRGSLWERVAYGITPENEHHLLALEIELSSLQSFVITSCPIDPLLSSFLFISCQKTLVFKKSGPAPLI
Sodium-dependent serotonin transporter, sequence (P31652 whole entry): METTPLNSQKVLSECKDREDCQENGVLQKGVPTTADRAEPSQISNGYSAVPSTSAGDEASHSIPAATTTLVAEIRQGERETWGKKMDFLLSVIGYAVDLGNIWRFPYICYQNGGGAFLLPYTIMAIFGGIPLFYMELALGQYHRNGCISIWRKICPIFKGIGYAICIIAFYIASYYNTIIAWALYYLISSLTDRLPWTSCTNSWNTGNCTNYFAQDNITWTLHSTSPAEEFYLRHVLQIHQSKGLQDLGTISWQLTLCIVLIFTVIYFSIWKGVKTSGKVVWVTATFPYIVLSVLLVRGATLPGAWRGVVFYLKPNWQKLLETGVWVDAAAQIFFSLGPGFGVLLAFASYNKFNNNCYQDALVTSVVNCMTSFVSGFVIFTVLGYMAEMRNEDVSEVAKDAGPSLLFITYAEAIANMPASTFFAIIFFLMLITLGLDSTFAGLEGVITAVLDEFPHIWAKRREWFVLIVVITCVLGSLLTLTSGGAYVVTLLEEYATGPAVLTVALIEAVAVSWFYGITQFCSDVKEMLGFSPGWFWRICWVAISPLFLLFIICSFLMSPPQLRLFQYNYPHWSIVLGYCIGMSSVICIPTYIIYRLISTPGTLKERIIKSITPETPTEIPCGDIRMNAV
T1 sequence (P23977 whole entry): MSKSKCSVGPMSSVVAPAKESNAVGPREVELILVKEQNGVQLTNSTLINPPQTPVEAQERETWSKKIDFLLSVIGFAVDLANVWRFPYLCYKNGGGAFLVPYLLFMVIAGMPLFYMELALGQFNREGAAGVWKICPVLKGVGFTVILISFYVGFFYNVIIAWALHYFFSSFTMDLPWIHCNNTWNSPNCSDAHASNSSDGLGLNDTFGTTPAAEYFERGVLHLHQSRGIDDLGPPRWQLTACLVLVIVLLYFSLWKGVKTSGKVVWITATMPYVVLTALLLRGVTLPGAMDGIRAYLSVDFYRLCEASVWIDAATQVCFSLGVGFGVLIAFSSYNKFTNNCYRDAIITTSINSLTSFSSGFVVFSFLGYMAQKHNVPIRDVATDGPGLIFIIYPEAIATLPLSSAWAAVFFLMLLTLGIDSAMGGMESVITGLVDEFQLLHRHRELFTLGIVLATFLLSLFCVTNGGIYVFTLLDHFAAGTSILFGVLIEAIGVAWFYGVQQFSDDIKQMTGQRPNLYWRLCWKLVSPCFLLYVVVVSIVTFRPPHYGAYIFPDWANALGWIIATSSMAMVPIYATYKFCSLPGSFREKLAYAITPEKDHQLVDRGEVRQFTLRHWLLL

As to `Fc1ccc(CN2CC=C(CCOC(c3ccccc3)c3ccccc3)CC2)cc1`, the IC50 in test [1] worked out at 1.11 µM; in test [2], 0.0378 µM.
As for `CCC(=O)O[C@@H]1CN(Cc2ccc(F)cc2)CC[C@H]1CCOC(c1ccccc1)c1ccccc1`, the IC50 in test [3] stood at 35.8 µM; in test [1] it was 178 µM; in test [2], 0.583 µM.
For the compound `Fc1ccc(CN2CCC(CCOC(c3ccccc3)c3ccccc3)CC2)cc1`, the half-maximal inhibitory concentration (IC50) in test [4] turned out to be 0.00248 µM.
With `O[C@H]1CN(Cc2ccc(F)cc2)CC[C@H]1CCOC(c1ccccc1)c1ccccc1` (racemic), the IC50 turned out to be 2.15 µM in test [3], 0.0101 µM in test [4], 3.31 µM in test [1] and 0.0112 µM in test [2].
With `O[C@@H]1CN(Cc2ccc(F)cc2)CC[C@H]1CCOC(c1ccccc1)c1ccccc1` (racemic), the IC50 in test [3] turned out to be 1.03 µM; in test [4] it was 0.00322 µM; in test [1], 2.36 µM; in test [2], 0.00414 µM.
The matching figures for `OC1CN(Cc2ccc(F)cc2)CC[C@@H]1CCOC(c1ccccc1)c1ccccc1` (stereo not given in full): 1.88 µM, 0.00405 µM, 3.6 µM and 0.00046 µM.
For `O=C1CN(Cc2ccc(F)cc2)CC[C@H]1CCOC(c1ccccc1)c1ccccc1`, the IC50 in test [3] is 6.3 µM; in test [1] it was 7.75 µM; in test [2] it was 0.099 µM.
Take `O[C@@H]1CN(Cc2ccc(F)cc2)CC[C@H]1CCOC(c1ccccc1)c1ccccc1`: the IC50 was 1.55 µM in test [3], 0.038 µM in test [4], 1.83 µM in test [1] and 0.0567 µM in test [2].

For orientation: IC50 means the concentration needed to halve the response being measured. Lower therefore signals greater potency.
